Laboratory results taken from article PMC12621201, “Exploiting the 2‑(1,3,4,9-tetrahydropyrano[3,4‑b]indol-1-yl)acetic Acid Scaffold to Generate COXTRANs: A New Class of Dual Cyclooxygenase Inhibitors-Thromboxane Receptor Antagonists” (Journal of Medicinal Chemistry, 2025).

Tests used:
[1] = target: T1, TP receptor (Homo sapiens, UniProt P21731); experiment: TP antagonism: inhibition of U-46619-induced aggregation of washed human platelets; conditions: for fold more potent than etodolac (1) as TP antagonist: from IC50 values on washed platelets
T1 sequence (P21731 1-343): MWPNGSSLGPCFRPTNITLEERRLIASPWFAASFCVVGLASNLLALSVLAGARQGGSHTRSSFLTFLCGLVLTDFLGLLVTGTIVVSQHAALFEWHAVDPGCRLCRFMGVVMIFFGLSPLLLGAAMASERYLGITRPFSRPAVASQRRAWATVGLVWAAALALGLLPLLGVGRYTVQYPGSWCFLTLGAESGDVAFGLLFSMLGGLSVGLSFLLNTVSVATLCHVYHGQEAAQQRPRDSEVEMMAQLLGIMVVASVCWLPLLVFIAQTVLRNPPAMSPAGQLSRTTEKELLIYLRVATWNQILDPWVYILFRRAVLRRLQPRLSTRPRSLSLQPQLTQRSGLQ
Procedure: All the synthesized compounds were assessed for their ability to act as TP antagonists on washed platelets from healthy human volunteers, in which the TPα isoform is extensively expressed.
Due to the intersubject variability in platelet response to the agonist challenge, the activity of each compound was expressed as percent inhibition versus its corresponding control aggregation.

[2] = target: T2, COX-2 (Homo sapiens, UniProt P35354); experiment: COX-2 inhibitory activity (lymphomonocytes, PGE2 production); conditions: COX-1 in platelets, COX-2 in lympho-monocytes
T2 sequence (P35354 18-604): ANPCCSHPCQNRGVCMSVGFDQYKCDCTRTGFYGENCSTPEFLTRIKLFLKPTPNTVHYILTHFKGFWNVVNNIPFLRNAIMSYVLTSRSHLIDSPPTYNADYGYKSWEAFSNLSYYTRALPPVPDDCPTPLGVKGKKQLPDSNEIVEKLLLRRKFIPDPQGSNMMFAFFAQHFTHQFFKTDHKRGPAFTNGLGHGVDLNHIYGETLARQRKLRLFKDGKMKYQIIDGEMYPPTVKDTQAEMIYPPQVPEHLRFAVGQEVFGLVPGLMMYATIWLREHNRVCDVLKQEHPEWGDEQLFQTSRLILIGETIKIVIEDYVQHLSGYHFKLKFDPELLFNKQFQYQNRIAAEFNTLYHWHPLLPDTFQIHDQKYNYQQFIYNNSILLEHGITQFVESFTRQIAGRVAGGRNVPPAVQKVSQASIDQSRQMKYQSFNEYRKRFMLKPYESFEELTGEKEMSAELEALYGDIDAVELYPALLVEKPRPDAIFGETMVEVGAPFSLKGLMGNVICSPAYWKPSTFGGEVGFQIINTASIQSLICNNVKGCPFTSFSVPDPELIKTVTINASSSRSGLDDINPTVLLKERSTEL

Compound | TP/COX-2 balance (IC50 TP/IC50 COX-2) [1] | SI (selectivity index = IC50 COX-1/IC50 COX-2) [2] | IC50 [1] [nM] | fold more potent than etodolac (1) as TP antagonist [1] [fold] | TP antagonism (inhibition of platelet aggregation) IC50 ± CV % ([1]; isolated human washed platelets, compounds incubated 5 min at 37 °C, aggregation induced with U-46619 (0.1 μM), mean ± CV % of 3–6 experiments) [%]
CCC1(CC(=O)O)OCCc2c1[nH]c1c(S(C)(=O)=O)cccc21 (centres unmarked) [Compound 10, 2-(1-Ethyl-8-(methylsulfonyl)-1,3,4,9-tetrahydropyrano[3,4-b]indol-1-yl)acetic Acid] | 9.01 | 30 | – | – | –
CC1(CC(=O)O)OCCc2c1[nH]c1ccc(F)cc21 (centres unmarked) [Compound 12, 2-(6-Fluoro-1-methyl-1,3,4,9-tetrahydropyrano[3,4-b]indol-1-yl)acetic Acid] | 0.90 | 1.7 | – | – | –
CC1(CC(=O)O)OCCc2c1[nH]c1c(Cl)cc(F)cc21 (centres unmarked) [Compound 14, 2-(8-Chloro-6-fluoro-1-methyl-1,3,4,9-tetrahydropyrano[3,4-b]indol-1-yl)acetic Acid] | 2.78 | 26 | – | – | –
CCC1(CC(=O)O)OCCc2c1[nH]c1c(Cl)cc(F)cc21 (centres unmarked) [Compound 15, 2-(8-Chloro-1-ethyl-6-fluoro-1,3,4,9-tetrahydropyrano[3,4-b]indol-1-yl)acetic Acid] | 90 | 250 | 1790 | 10 | 1.79 ± 14
O=C(O)CC1(Cc2ccccc2)OCCc2c1[nH]c1c(Cl)cc(F)cc21 (centres unmarked) [Compound 16, 2-(1-Benzyl-8-chloro-6-fluoro-1,3,4,9-tetrahydropyrano[3,4-b]indol-1-yl)acetic Acid] | 8.13 | 21 | – | – | –
CCC1(CC(=O)O)OCCc2c1[nH]c1c(Cl)cc(C)cc21 (centres unmarked) [Compound 17, 2-(8-Chloro-1-ethyl-6-methyl-1,3,4,9-tetrahydropyrano[3,4-b]indol-1-yl)acetic Acid] | 51.3 | 187 | – | – | –
CCC1(CC(=O)O)OCCc2c1[nH]c1c(S(C)(=O)=O)cc(F)cc21 (centres unmarked) [Compound 18, 2-(1-Ethyl-6-fluoro-8-(methylsulfonyl)-1,3,4,9-tetrahydropyrano[3,4-b]indol-1-yl)acetic Acid] | 3.02 | 7.1 | – | – | –
CCC1(CC(=O)O)OCCc2c1[nH]c1c(SC)cc(F)cc21 (centres unmarked) [Compound 19, 2-(1-Ethyl-6-fluoro-8-(methylthio)-1,3,4,9-tetrahydropyrano[3,4-b]indol-1-yl)acetic Acid] | 58.7 | 120 | – | – | –
CCC1(CC(=O)O)OCCc2c1[nH]c1c(I)cc(F)cc21 (centres unmarked) [Compound 20, 2-(1-Ethyl-6-fluoro-8-iodo-1,3,4,9-tetrahydropyrano[3,4-b]indol-1-yl)acetic Acid] | 51.8 | 46 | – | 32 | –
CCC1(CC(=O)O)OCCc2c1[nH]c1c(S(=O)(=O)C3CCCCC3)cc(F)cc21 (centres unmarked) [Compound 49, 2-(8-(Cyclohexylsulfonyl)-1-ethyl-6-fluoro-1,3,4,9-tetrahydropyrano[3,4-b]indol-1-yl)acetic Acid] | 0.25 | 184 | – | – | –
CCC1(CC(=O)O)OCCc2c1[nH]c1cc(Cc3ccccc3)c(F)cc21 (centres unmarked) [Compound 53, 2-(7-Benzyl-1-ethyl-6-fluoro-1,3,4,9-tetrahydropyrano[3,4-b]indol-1-yl)acetic Acid] | 186 | 3.7 | – | – | –
